# From patent US9133129B2, “Bicyclic compound” (TAKEDA PHARMACEUTICAL COMPANY LIMITED, priority 2011, dated 2015)
# Target: T1, human ACC2 (Homo sapiens, UniProt O00763)
# T1 construct: made in house; host or cells: SF-9 insect cells, recombinant baculovirus BAC-ACC2 (Nd)
# Experiment: ACC2 inhibitory activity, malachite green assay with recombinant ACC2 (Nd)
# Type: biochemical
# Conditions: 1 μM of the test compound; read-out: ACC2 inhibitory rates (%) at 1 μM
# Description: The ACC2 inhibitory action of the compound of the present invention was evaluated by the following method.
# (1) Cloning of Human ACC2 Gene and Preparation of Recombinant Baculovirus
# Human ACC2 gene was cloned by PCR using a human skeletal muscle cDNA library (Clontech) as a template and Primer 1 and Primer 2 shown below. Primer 1 and Primer 2 were prepared by adding SalI, XbaI restriction enzyme recognition sequences based on the information of the base sequence of human ACC2 gene (Genbank Accession U89344).
# (§1) PCR was performed using Pyrobest DNA polymerase (TAKARA BIO INC.). The obtained PCR product was cloned to pT7 Blue vector (Novagen) and after confirmation of the base sequence, digested with restriction enzymes SalI and XbaI. The obtained DNA fragment was inserted into pFAST-BacHTa (Invitrogen) digested with restriction enzymes SalI and XbaI to give expression plasmid ACC2/pFAST-BacHTa.
# A plasmid for expression of ACC2 without a mitochondrial targeting sequence was prepared by PCR using the expression plasmid as a template, and Primer 3 (SalI restriction enzyme recognition sequence was added) and Primer 4, which are prepared by reference to the information of human ACC2 gene base sequence (Genbank Accession U89344).
# as §1, with “Pyrobest-DNA” for “Pyrobest DNA”, “AflII.” for “XbaI.”, “ACC2/pFAST-BacHTa” for “pFAST-BacHTa (Invitrogen)”, “AflII” for “XbaI”, “ACC2mito7/pFAST-BacHTa.” for “ACC2/pFAST-BacHTa.”
# Using the expression plasmid ACC2mito7/pFAST-BacHTa and BAC-TO-BAC Baculovirus Expression System (Invitrogen), virus stock BAC-ACC2 of recombinant Baculovirus (N terminal deleted (hereinafter Nd)) was prepared.
# (2) Preparation of ACC2 (Nd) Protein
# SF-9 cells (Invitrogen) were inoculated to a medium (10 L) for insect cells (Sf-900IISFM medium (Invitrogen) containing 5% fetal bovine serum (Trace), 50 mg/L Gentamicin (Wako), 0.1% Pluronic F-68 (Invitrogen)) at 1.0×10^6 cells/mL, and cultured with shaking in Wave Bioreactor (GE Health Care) at 27° C., 20 rpm, rocking angle 10°, oxygen concentration 30%.
# On day 2 of the culture, recombinant Baculovirus BAC-ACC2 (Nd) was added, and the cells were cultured for 3 days. The culture medium was centrifuged at 1000×g for 10 min to give virus-infected cells. The cells were washed with phosphate buffered saline (Invitrogen) and centrifuged under the same conditions. The obtained cells were cryopreserved at −80° C.
# The cryopreserved cells were thawed in ice and suspended in 900 mL of 25 mM HEPES buffer (pH 7.5) containing 10% Glycerol, 0.3 M NaCl, 1 mM EDTA, 25 mM Sodium β-Glycerophosphate and 1 mM Sodium Orthovanadate, and supplemented with Complete Protease Inhibitor (Roche). The obtained suspension was homogenized three times in a polytron homogenizer (Kinematica) at 20,000 rpm for 30 sec. The obtained cell disruption solution was clarified by centrifugation at 186000×g for 60 min. To the supernatant was added 5 mL of AF-chelate 650M Ni chelated carrier (TOSOH), and the mixture was rotated at 4° C. for 1 hr, and centrifuged at 1000×g for 5 min, and the carrier was transferred to opened column. The column was washed with 50 mL of buffer A (50 mM HEPES (pH 7.5) containing 0.3 M NaCl), further washed with buffer A containing 20 mM Imidazole, and eluted with buffer A containing 250 mM Imidazole. The eluate was concentrated with Amicon Ultra 15 (Millipore) with a molecular weight cut off of 50K. The obtained concentrate was filtered using gelfiltration column (HiLoad 26/60 Superdex200 prep grade) (GE Health Care) with 50 mM HEPES buffer (pH 7.5) containing 10 mM MgCl2, 2 mM Dithiothreitol, 10 mM Tripotassium Citrate and 0.3 M NaCl to give ACC2 (Nd). The obtained ACC2 (Nd) was cryopreserved at −80° C.
# (3) Measurement of ACC2 Inhibitory Activity […]
# T1 sequence (O00763 117-2458 limits assumed): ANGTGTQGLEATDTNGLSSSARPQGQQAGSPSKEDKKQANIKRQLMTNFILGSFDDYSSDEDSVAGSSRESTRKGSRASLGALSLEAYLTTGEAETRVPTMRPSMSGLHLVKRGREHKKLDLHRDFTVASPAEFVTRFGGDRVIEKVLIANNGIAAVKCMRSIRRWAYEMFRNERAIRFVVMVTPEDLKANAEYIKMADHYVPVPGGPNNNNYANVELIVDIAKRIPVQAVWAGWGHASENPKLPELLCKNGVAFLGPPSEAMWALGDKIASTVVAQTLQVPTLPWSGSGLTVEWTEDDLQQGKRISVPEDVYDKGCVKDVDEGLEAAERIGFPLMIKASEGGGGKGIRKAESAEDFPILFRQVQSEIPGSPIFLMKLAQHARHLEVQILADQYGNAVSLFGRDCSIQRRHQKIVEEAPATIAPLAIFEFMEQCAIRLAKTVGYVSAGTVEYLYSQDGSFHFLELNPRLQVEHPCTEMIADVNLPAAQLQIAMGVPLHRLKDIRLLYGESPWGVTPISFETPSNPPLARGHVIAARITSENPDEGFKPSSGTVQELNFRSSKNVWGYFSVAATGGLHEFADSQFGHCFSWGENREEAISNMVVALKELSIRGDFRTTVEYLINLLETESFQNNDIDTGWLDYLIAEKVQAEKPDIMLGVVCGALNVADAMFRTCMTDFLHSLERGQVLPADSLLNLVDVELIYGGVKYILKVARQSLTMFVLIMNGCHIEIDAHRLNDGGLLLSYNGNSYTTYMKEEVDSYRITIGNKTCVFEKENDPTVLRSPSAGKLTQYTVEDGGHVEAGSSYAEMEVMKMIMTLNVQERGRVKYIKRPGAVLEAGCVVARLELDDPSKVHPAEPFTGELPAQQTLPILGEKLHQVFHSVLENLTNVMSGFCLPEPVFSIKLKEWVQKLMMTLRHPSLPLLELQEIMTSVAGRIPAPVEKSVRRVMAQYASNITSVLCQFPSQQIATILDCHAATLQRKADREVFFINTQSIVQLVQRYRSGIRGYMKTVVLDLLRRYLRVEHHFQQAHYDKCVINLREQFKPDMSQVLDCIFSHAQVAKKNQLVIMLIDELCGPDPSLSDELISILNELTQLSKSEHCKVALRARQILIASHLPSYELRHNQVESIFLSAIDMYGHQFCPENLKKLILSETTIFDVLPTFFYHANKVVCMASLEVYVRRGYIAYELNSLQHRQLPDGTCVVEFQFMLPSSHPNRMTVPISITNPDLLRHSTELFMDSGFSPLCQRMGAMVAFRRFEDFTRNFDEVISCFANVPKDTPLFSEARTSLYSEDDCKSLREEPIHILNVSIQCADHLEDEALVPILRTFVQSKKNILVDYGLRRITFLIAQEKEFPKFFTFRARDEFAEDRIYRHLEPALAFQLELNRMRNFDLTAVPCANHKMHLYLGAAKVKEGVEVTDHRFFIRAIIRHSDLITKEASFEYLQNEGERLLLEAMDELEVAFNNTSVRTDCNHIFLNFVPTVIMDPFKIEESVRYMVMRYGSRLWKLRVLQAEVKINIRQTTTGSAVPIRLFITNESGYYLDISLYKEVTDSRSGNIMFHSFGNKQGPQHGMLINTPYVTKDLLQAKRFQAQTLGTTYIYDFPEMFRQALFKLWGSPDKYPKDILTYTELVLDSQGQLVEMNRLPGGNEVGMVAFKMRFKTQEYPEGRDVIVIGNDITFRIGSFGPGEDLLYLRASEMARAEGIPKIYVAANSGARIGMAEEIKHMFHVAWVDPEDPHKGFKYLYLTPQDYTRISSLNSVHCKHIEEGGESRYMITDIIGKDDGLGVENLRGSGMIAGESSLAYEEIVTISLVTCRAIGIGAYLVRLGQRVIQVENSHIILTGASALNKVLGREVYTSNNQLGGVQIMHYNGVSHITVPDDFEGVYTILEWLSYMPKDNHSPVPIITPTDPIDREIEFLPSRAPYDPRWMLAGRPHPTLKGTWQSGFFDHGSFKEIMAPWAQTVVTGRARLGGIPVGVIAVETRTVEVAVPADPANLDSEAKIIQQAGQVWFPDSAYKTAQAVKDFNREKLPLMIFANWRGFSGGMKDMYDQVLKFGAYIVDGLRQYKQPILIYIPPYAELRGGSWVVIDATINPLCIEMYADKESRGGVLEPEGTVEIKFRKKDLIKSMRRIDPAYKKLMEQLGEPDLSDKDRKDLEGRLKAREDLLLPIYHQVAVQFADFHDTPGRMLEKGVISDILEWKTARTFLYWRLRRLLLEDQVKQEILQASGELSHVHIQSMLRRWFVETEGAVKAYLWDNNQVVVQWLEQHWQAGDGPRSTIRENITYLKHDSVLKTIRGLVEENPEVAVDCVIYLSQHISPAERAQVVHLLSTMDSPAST
row,inhibition at 1 µM,SMILES
1,98%,"CC(=O)N[C@@H](C)COc1cc2oc(-c3ccc(OC[C@H]4CC4(F)F)c(F)c3)nc2cn1 [Example 69, N-((2S)-1-((2-(4-(((1R)-2,2-difluorocyclopropyl)methoxy)-3-fluorophenyl) [1,3]oxazolo[4,5-c]pyridin-6-yl)oxy)propan-2-yl)acetamide]"

# Same assay, conditions: 10 μM of the test compound; 10 µM
row,ACC2 inhibitory rates (%) at 10 μM,SMILES
1,95%,"CC(=O)NC(C)COC1CCc2oc(-c3ccc(OCC4CC4)c(F)c3)nc2C1 (stereo not shown) [Example 51d, N-(1-((2-(4-(cyclopropylmethoxy)-3-fluorophenyl)-4,5,6,7-tetrahydro-1,3-benzoxazol-5-yl)oxy)propan-2-yl)acetamide]"
2,89%,"CC(=O)N[C@@H](C)COc1cc2oc(-c3cc(F)c(OCC4CC4(F)F)c(F)c3)nc2cn1 (stereo partly drawn) [Example 86, N-((2S)-1-((2-(4-((2,2-difluorocyclopropyl)methoxy)-3,5-difluorophenyl)[1,3]oxazolo[4,5-c]pyridin-6-yl)oxy)propan-2-yl)acetamide]"

# Same assay, conditions: 10 μM of the test compound; read-out: ACC2 inhibitory rates (%) at 10 μM
row,SMILES,inhibition at 10 µM
1,"CC(=O)N[C@@H](C)COc1ccc2nc(-c3ccc(OCC4CC4)c(F)c3)oc2c1 [Example 1, N-((2S)-1-((2-(4-(cyclopropylmethoxy)-3-fluorophenyl)-1,3-benzoxazol-6-yl)oxy)propan-2-yl)acetamide]",95%
2,"C[C@@H](COc1ccc2nc(-c3ccc(OCC4CC4)c(F)c3)oc2c1)NC(=O)N(C)C [Example 10, 3-((2S)-1-((2-(4-(cyclopropylmethoxy)-3-fluorophenyl)-1,3-benzoxazol-6-yl)oxy)propan-2-yl)-1,1-dimethylurea]",91%
3,"CC(=O)N[C@@H](C)COc1cc2oc(-c3cnc(OCC4CC4)c(Cl)c3)nc2cn1 [Example 35, N-((2S)-1-((2-(5-chloro-6-(cyclopropylmethoxy)pyridin-3-yl)[1,3]oxazolo[4,5-c]pyridin-6-yl)oxy)propan-2-yl)acetamide]",83%
4,"CC(=O)N[C@@H](C)COc1ccc2nc(-c3ccc(OCC4CC4)c(F)c3)oc2c1F [Example 37, N-((2S)-1-((2-(4-(cyclopropylmethoxy)-3-fluorophenyl)-7-fluoro-1,3-benzoxazol-6-yl)oxy)propan-2-yl)acetamide]",90%
5,"CC(=O)N[C@@H](C)COc1cc(F)c2nc(-c3ccc(OCC4CC4)c(F)c3)oc2c1 [Example 43, N-((2S)-1-((2-(4-(cyclopropylmethoxy)-3-fluorophenyl)-4-fluoro-1,3-benzoxazol-6-yl)oxy)propan-2-yl)acetamide]",92%
6,"CC(=O)N[C@@H](C)COc1cc2oc(-c3cc(F)c(OCC4CC4)c(F)c3)nc2cn1 [Example 47, N-((2S)-1-((2-(4-(cyclopropylmethoxy)-3,5-difluorophenyl)[1,3]oxazolo[4,5-c]pyridin-6-yl)oxy)propan-2-yl)acetamide]",91%
7,"CC(=O)N[C@@H](C)COc1cc2oc(-c3cc(F)c(OCC4CC4)cc3F)nc2cn1 [Example 48, N-((2S)-1-((2-(4-(cyclopropylmethoxy)-2,5-difluorophenyl)[1,3]oxazolo[4,5-c]pyridin-6-yl)oxy)propan-2-yl)acetamide]",85%
8,"CC(=O)NC(C)COC1CCc2oc(-c3ccc(OCC4CC4)c(F)c3)nc2C1 (stereo not shown) [Example 51c, N-(1-((2-(4-(cyclopropylmethoxy)-3-fluorophenyl)-4,5,6,7-tetrahydro-1,3-benzoxazol-5-yl)oxy)propan-2-yl)acetamide]",84%
9,"CC(=O)N[C@@H](C)COc1cc2oc(-c3ccc(OCC4CC4)cc3C)nc2cn1 [Example 117, N-((2S)-1-((2-(4-(cyclopropylmethoxy)-2-methylphenyl)[1,3]oxazolo[4,5-c]pyridin-6-yl)oxy)propan-2-yl)acetamide]",101%
10,"CC(=O)N[C@@H](C)COc1cc2oc(-c3ncc(OCC4CC4)cc3C)nc2cn1 [Example 120, N-((2S)-1-((2-(5-(cyclopropylmethoxy)-3-methylpyridin-2-yl)[1,3]oxazolo[4,5-c]pyridin-6-yl)oxy)propan-2-yl)acetamide]",96%
11,"CC(=O)N[C@@H](C)COc1cc2oc(-c3cnc(OCC4CC4)cc3C)nc2cn1 [Example 122, N-((2S)-1-((2-(6-(cyclopropylmethoxy)-4-methylpyridin-3-yl)[1,3]oxazolo[4,5-c]pyridin-6-yl)oxy)propan-2-yl)acetamide]",84%
12,"CC(=O)N[C@@H](C)COc1ncc2nc(-c3ccc(OCC4CC4(F)F)cc3)oc2n1 (stereo partly drawn) [Example 136, N-((2S)-1-((2-(4-((2,2-difluorocyclopropyl)methoxy)phenyl) [1,3]oxazolo[5,4-d]pyrimidin-5-yl)oxy)propan-2-yl)acetamide]",84%
13,"CC(=O)N[C@@H](C)COc1ncc2nc(-c3cc(F)c(OC[C@H]4CC4(F)F)c(F)c3)oc2n1 [Example 167, N-((2S)-1-((2-(4-(((1R)-2,2-difluorocyclopropyl)methoxy)-3,5-difluorophenyl)[1,3]oxazolo[5,4-d]pyrimidin-5-yl)oxy)propan-2-yl)acetamide]",81%

# Other lines, results leading:
row,inhibition at 10 µM,SMILES
1,94%,"CC(=O)N[C@@H](C)COc1cc2oc(-c3ccc(OCC4CC4(F)F)c(F)c3)nc2cn1 (stereo partly drawn) [Example 49, N-((2S)-1-((2-(4-((2,2-difluorocyclopropyl)methoxy)-3-fluorophenyl)[1,3]oxazolo[4,5-c]pyridin-6-yl)oxy)propan-2-yl)acetamide]"
2,89%,"CC(=O)N[C@@H](C)COc1ccc2nc(-c3ccc(OCC4CC4(F)F)c(F)c3)oc2c1F (stereo partly drawn) [Example 80, N-((2S)-1-((2-(4-((2,2-difluorocyclopropyl)methoxy)-3-fluorophenyl)-7-fluoro-1,3-benzoxazol-6-yl)oxy)propan-2-yl)acetamide]"
3,96%,"CC(=O)N[C@@H](C)COc1cc2oc(-c3cc(F)c(OCC4CC4(F)F)c(F)c3)nc2cn1 (stereo partly drawn) [Example 131, N-((2S)-1-((2-(4-((2,2-difluorocyclopropyl)methoxy)-3,5-difluorophenyl)[1,3]oxazolo[4,5-c]pyridin-6-yl)oxy)propan-2-yl)acetamide]"
4,80%,"CC(=O)N[C@@H](C)COc1cc2oc(-c3ccc(OCC4(C)CC4(F)F)c(F)c3)nc2cn1 (stereo partly drawn) [Example 159, N-((2S)-1-((2-(4-((2,2-difluoro-1-methylcyclopropyl)methoxy)-3-fluorophenyl)[1,3]oxazolo[4,5-c]pyridin-6-yl)oxy)propan-2-yl)acetamide]"
5,93%,"CC(=O)N[C@@H](C)COc1cc2oc(-c3ncc(OC[C@H]4CC4(F)F)cc3Cl)nc2cn1 [Example 163, N-((2S)-1-((2-(3-chloro-5-(((1R)-2,2-difluorocyclopropyl)methoxy)pyridin-2-yl)[1,3]oxazolo[4,5-c]pyridin-6-yl)oxy)propan-2-yl)acetamide]"

# System: not given
# Experiment: not given
# Conditions: not given
row,melting point,SMILES
1,174 °C,"CC(=O)N[C@@H](C)COc1ccc2nc(-c3ccc(OCC4CC4)c(F)c3)oc2c1 [Example 1, N-((2S)-1-((2-(4-(cyclopropylmethoxy)-3-fluorophenyl)-1,3-benzoxazol-6-yl)oxy)propan-2-yl)acetamide]"
2,156 to 159 °C,"CC(=O)N[C@@H](C)COc1ccc2nc(-c3ccc(OCC4CC4)c(Cl)c3)oc2c1 [Example 29, N-((2S)-1-((2-(3-chloro-4-(cyclopropylmethoxy)phenyl)-1,3-benzoxazol-6-yl)oxy)propan-2-yl)acetamide]"
3,163 to 164 °C,"CC(=O)N[C@@H](C)COc1ccc2nc(-c3ccc(OCC4CC4)c(F)c3)oc2c1F [Example 37, N-((2S)-1-((2-(4-(cyclopropylmethoxy)-3-fluorophenyl)-7-fluoro-1,3-benzoxazol-6-yl)oxy)propan-2-yl)acetamide]"
4,199.8 to 199.9 °C,"CC(=O)N[C@@H](C)COc1cc2oc(-c3cc(F)c(OCC4CC4)cc3F)nc2cn1 [Example 48, N-((2S)-1-((2-(4-(cyclopropylmethoxy)-2,5-difluorophenyl)[1,3]oxazolo[4,5-c]pyridin-6-yl)oxy)propan-2-yl)acetamide]"
